Measured values: PMC13242511, “Disrupting Notch signalling by a small molecule inhibiting dihydroorotate dehydrogenase activity” (Scientific Reports, 2026)

Assays:
Type in all cases: cell-based
γ-secretase complex = γ-secretase complex (Homo sapiens, UniProt P49768); assay: APP-C99 counter assay (GSI reporter assay); details: for 3p-DR in % of DMSO counter: APP-C99 counter assay
How it was run: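 γ-secretase activity reported via APP cleavage driving firefly luciferase, normalized to renilla. After 24 h transfection then 24 h compound exposure, signals were read (0.1 s integration). Triplicate dose–responses fitted by variable-slope four-parameter model for IC50; area under curve also derived.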

Notch signalling [1] = assay: Notch reporter assay (12xCSL firefly luciferase / renilla luciferase, HEK293T Notch1ΔE reporter cell line clone #A1-11); design: Confirmation screen: unit not given here; details: for inhibitor ratio in % of DMSO in 3 point DR: 3-point DR confirmation screen, Notch reporter assay
How it was run: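 Compounds at two-fold concentration in 10 µl medium were brought to one-fold by adding 10 µl holding 4000 Notch reporter cells (clone #A1-11) per well of a 384-well plate. After 24 h, Promega dual-GLO firefly and renilla luciferase were read on a SpectraMaxi3. Dose-response curves were fitted with a log(inhibitor) vs. response variable-slope model.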

Notch signalling [2] = assay: as above; details: 24 h, unit from Fig. 2 legend
[3] = 10 µM, sheet conf vs counter 10 µM
[4] = 25 µM, sheet "conf vs counter 25 µM", same values given as % of DMSO in sheet "3p-DR in % of DMSO counter"
[5] = 10 µM, sheet conf vs counter 10 µM, same values as 3-point DR confirmation screen
[6] = 25 µM, Notch reporter 3-point dose-confirmation assay, sheet "conf vs counter 25 µM"

| Structure (SMILES) | 3p-DR in % of DMSO counter (γ-secretase complex; 10µM) | Counter screen (Hek APP-C99) (γ-secretase complex; [3]) | 3p-DR in % of DMSO counter (γ-secretase complex; 25µM) | Counter screen (Hek APP-C99) (γ-secretase complex; [4]) | 3p-DR in % of DMSO counter (γ-secretase complex; 1,25µM) | inhibitor ratio in % of DMSO in 3 point DR (Notch signalling [1]; 10µM) | Confirmation screen (Notch signalling [1]; [5]) | inhibitor ratio in % of DMSO in 3 point DR (Notch signalling [1]; 25µM) | Confirmation screen (Notch signalling [1]; [6]) | inhibitor ratio in % of DMSO in 3 point DR (Notch signalling [1]; 1,25µM) | Primary screen at 10 µM (Notch reporter signal) (Notch signalling [2]) |
| --- | --- | --- | --- | --- | --- | --- | --- | --- | --- | --- | --- |
| COc1cc(Nc2cc(-c3ccccc3N(C)C)ncn2)cc(OC)c1OC [CBK090702] | 148.1 % of DMSO | 148.1 | 225.5 % of DMSO | 225.5 | 124.5 % of DMSO | 85.7 % of DMSO | 85.7 | 55.7 % of DMSO | 55.7 | 97.2 % of DMSO | 68.4 % of DMSO |
| CC(=O)Nc1cccc(-c2ccc(Nc3cccc(N(C)C)c3)nc2)c1 [CBK036829] | 40.4 % of DMSO | 40.4 | 38.9 % of DMSO | 38.9 | 49.9 % of DMSO | 28.3 % of DMSO | 28.3 | 23.9 % of DMSO | 23.9 | 30.6 % of DMSO | 22.4 % of DMSO |
| Fc1cc(CN2CCC3(CC2)OCCc2c3[nH]c3ccc(Br)cc23)cc(F)c1F [CBK039943] | 118.1 % of DMSO | 118.1 | 117.4 % of DMSO | 117.4 | 92.8 % of DMSO | 83.6 % of DMSO | 83.6 | 75.1 % of DMSO | 75.1 | 111.8 % of DMSO | 63.6 % of DMSO |
| CCCC(=O)c1ccc(S(=O)(=O)N2CCN(Cc3csc(-c4ccccc4)n3)CC2)cc1 [CBK063161] | 124.1 % of DMSO | 124.1 | 120.8 % of DMSO | 120.8 | 122.5 % of DMSO | 67.2 % of DMSO | 67.2 | 76.4 % of DMSO | 76.4 | 102.6 % of DMSO | 68.2 % of DMSO |
| CCC(C)(C)c1ccc(S(=O)(=O)Nc2ccc3ncsc3c2)cc1 [CBK043490] | 45.0 % of DMSO | 45.0 | 59.5 % of DMSO | 59.5 | 53.8 % of DMSO | 33.5 % of DMSO | 33.5 | 42.6 % of DMSO | 42.6 | 42.1 % of DMSO | 46.9 % of DMSO |
| Nc1ccc(Sc2nccnc2N2CCCC2)cc1 [CBK089520] | 34.9 % of DMSO | 34.9 | 11.6 % of DMSO | 11.6 | 115.4 % of DMSO | 42.1 % of DMSO | 42.1 | 27.1 % of DMSO | 27.1 | 103.0 % of DMSO | 43.1 % of DMSO |

More lines, main results first:

| 3p-DR in % of DMSO counter (γ-secretase complex; 10µM) | Counter screen (Hek APP-C99) (γ-secretase complex; [3]) | 3p-DR in % of DMSO counter (γ-secretase complex; 25µM) | Counter screen (Hek APP-C99) (γ-secretase complex; [4]) | 3p-DR in % of DMSO counter (γ-secretase complex; 1,25µM) | Structure (SMILES) | inhibitor ratio in % of DMSO in 3 point DR (Notch signalling [1]; 10µM) | Confirmation screen (Notch signalling [1]; [5]) | inhibitor ratio in % of DMSO in 3 point DR (Notch signalling [1]; 25µM) | Confirmation screen (Notch signalling [1]; [6]) | inhibitor ratio in % of DMSO in 3 point DR (Notch signalling [1]; 1,25µM) | Primary screen at 10 µM (Notch reporter signal) (Notch signalling [2]) |
| --- | --- | --- | --- | --- | --- | --- | --- | --- | --- | --- | --- |
| 127.0 % of DMSO | 127.0 | 166.0 % of DMSO | 166.0 | 130.0 % of DMSO | O=C(Nc1ccc(O)c(-c2nc3ccccc3o2)c1)c1ccc(-c2ccc([N+](=O)[O-])cc2)o1 [CBK263439] | 110.7 % of DMSO | 110.7 | 101.9 % of DMSO | 101.9 | 103.9 % of DMSO | 63.7 % of DMSO |
| 81.1 % of DMSO | 81.1 | 76.7 % of DMSO | 76.7 | 74.5 % of DMSO | COc1ccc(N(CC(O)CN2CCOCC2)S(=O)(=O)c2ccccc2)cc1 (stereo not drawn) [CBK263589] | 96.3 % of DMSO | 96.3 | 100.1 % of DMSO | 100.1 | 103.6 % of DMSO | 69.0 % of DMSO |
| 16.4 % of DMSO | 16.4 | 13.7 % of DMSO | 13.7 | 29.7 % of DMSO | O=C(O)c1c2c(nc3ccccc13)C(=Cc1ccc3c(c1)OCCO3)CC2 [CBK297479] | 15.2 % of DMSO | 15.2 | 7.0 % of DMSO | 7.0 | 22.8 % of DMSO | 18.5 % of DMSO |
| 31.9 % of DMSO | 31.8 | 19.5 % of DMSO | 19.5 | 104.9 % of DMSO | CC(C)Nc1cncc(OCc2ccc(Cl)c(Cl)c2)n1 [CBK115653] | 44.3 % of DMSO | 44.3 | 30.6 % of DMSO | 30.6 | 102.4 % of DMSO | 41.7 % of DMSO |
| 72.6 % of DMSO | 72.6 | 66.8 % of DMSO | 66.8 | 111.1 % of DMSO | NC(=O)c1c(NC(=S)NC(NC(=O)c2ccccc2)C(Cl)(Cl)Cl)sc2c1CCCC2 (stereo not drawn) [CBK261048] | 66.7 % of DMSO | 66.7 | 49.9 % of DMSO | 49.9 | 102.1 % of DMSO | 67.0 % of DMSO |
| 23.7 % of DMSO | 23.6 | 12.4 % of DMSO | 12.4 | 76.3 % of DMSO | C[C@@H]1C(=O)O[C@H]2[C@H]1CC[C@@]1(C)Cc3sc(NC(=O)CCC(=O)O)nc3[C@@H](C)[C@H]21 [CBK289429] | 38.0 % of DMSO | 38.0 | 25.1 % of DMSO | 25.1 | 77.4 % of DMSO | 35.5 % of DMSO |
| 62.4 % of DMSO | 62.4 | 22.0 % of DMSO | 22.0 | 131.3 % of DMSO | COc1ccc(-c2noc([C@@H]3Cc4[nH]cnc4CN3C(=O)CCC(=O)O)n2)cc1 [CBK288967] | 51.6 % of DMSO | 51.6 | 56.4 % of DMSO | 56.4 | 72.4 % of DMSO | 51.7 % of DMSO |
| 93.1 % of DMSO | 93.1 | 78.1 % of DMSO | 78.1 | 112.2 % of DMSO | c1ccc2oc(CN3Cc4nc[nH]c4C[C@H]3c3nc(-c4ccc5c(c4)OCO5)no3)cc2c1 [CBK288998] | 72.8 % of DMSO | 72.8 | 66.3 % of DMSO | 66.3 | 89.6 % of DMSO | 68.4 % of DMSO |
| 59.0 % of DMSO | 59.0 | 46.1 % of DMSO | 46.1 | 61.2 % of DMSO | COc1cccc(OCC2CCCN(C(=O)CCc3cnn(C)c3)C2)c1 (stereo not drawn) [CBK306931] | 57.0 % of DMSO | 57.0 | 34.9 % of DMSO | 34.9 | 63.9 % of DMSO | 46.7 % of DMSO |
